Results taken from ChEMBL document CHEMBL1145626, “Novel echinocandin antifungals. Part 2: Optimization of the side chain of the natural product FR901379. Discovery of micafungin” (Bioorg Med Chem Lett, 2008).
*1 amine or outer side, *2 acyl side, *3 side chain or, on linkers, in order; H or OH if unused. Where a SMILES comes first, the peptide text is derived from it. Bridges are numbered along the chain shown (N, C = ends). [ ]: non-standard residue; d: D form. The star is where a group is joined. ξ: configuration not given here. hTyr(3S-OH,4S-OH,3'-OSO3H) = N[C@H](C(=O)O)[C@H](O)[C@@H](O)c1ccc(O)c(OS(=O)(=O)O)c1; Orn(4R-OH,5R-OH) = O=C([C@H](C[C@@H](O)[C@@H](O)N[*:3])N[*:1])[*:2]; Orn(4R-OH,5S-OH) = O=C([C@H](C[C@@H](O)[C@H](O)N[*:3])N[*:1])[*:2]; X4 = CCCCCCOc1ccc(-c2nnc(-c3ccc(C(=O)*)cc3)s2)cc1; X6 = CCCCCCCOc1ccc(N2CCN(c3ccc(C(=O)*)cn3)CC2)cc1; Pro(3S-OH,4S-Me) = C[C@H]1CN[C@H](C(=O)O)[C@H]1O; X1 = CCCCCCOc1ccc(N2CCN(c3ccc(C(=O)*)cc3)CC2)cc1; X2 = CCCCCOc1ccc(-c2cc(-c3ccc(C(=O)*)cc3)no2)cc1; X3 = CCCCOc1ccc(-c2ccc(-c3ccc(C(=O)*)cc3)cc2)cc1; X5 = CCCCCOc1ccc(-c2cc(-c3ccc(C(=O)*)cc3)on2)cc1; X7 = CCCCCCOc1ccc(C2CCN(c3ccc(C(=O)*)cc3)CC2)cc1; X8 = CCCCCOc1ccc(-c2nc(-c3ccc(C(=O)*)cc3)cs2)cc1; Benzoyl(4-octyloxy) = CCCCCCCCOc1ccc(C(=O)*)cc1; Gln(3R-OH) = NC(=O)C[C@@H](O)[C@H](N)C(=O)O; Hyp = O=C(O)[C@@H]1C[C@@H](O)CN1; ξThr(3R) = C[C@@H](O)C(N)C(=O)O

How the values were obtained:
[1] = Hemolytic activity in human erythrocytes at 1 mg/ml; format: ADME, cell-based, Erythrocyte; settings: read-out: Activity
Aspergillus fumigatus [2] = experiment: Antifungal activity against Aspergillus fumigatus FP1305 in RPMI media; format: functional
Candida albicans [3] = experiment: Antifungal activity against Candida albicans FP633 in RPMI media; format: functional
Aspergillus fumigatus [4] = experiment: Antifungal activity against Aspergillus fumigatus FP1305 in mouse serum; format: functional
Candida albicans [5] = experiment: Antifungal activity against Candida albicans FP633 in mouse serum; format: functional
Candida albicans [6] = experiment: Antifungal activity against Candida albicans FP633 infected in mouse; format: functional
Aspergillus fumigatus [7] = experiment: Antifungal activity against Aspergillus fumigatus FP1305 infected in mouse
[8] = Concentration in mouse plasma at 5 mg/kg, iv after 30 mins; format: ADME, organism-based; parameters: dose 5 mg/kg, route intravenous
[9] = Half life in mouse at 5 mg/kg, iv after 30 mins; format: ADME, organism-based; parameters: dose 5 mg/kg, route intravenous; settings: in vivo
[10] = AUC (0 to infinity) in mouse at 5 mg/kg, iv after 30 mins; format: ADME, organism-based; parameters: time infinity, dose 5 mg/kg, route intravenous; settings: plasma

| SMILES | hemolysis at 1 mg/ml [1] [%] | IC50 (Aspergillus fumigatus [2]) [µg/mL] | MIC (Candida albicans [3]) [µg/mL] | MIC (Aspergillus fumigatus [4]) [µg/mL] | MIC (Candida albicans [5]) [µg/mL] | ED50 (Candida albicans [6]) [mg/kg] | ED50 (Aspergillus fumigatus [7]) [mg/kg] | concentration at 0.5 h [8] [ng/mL] | half-life [9] [h] | AUC(0-inf) [10] [µg·h/mL] |
| --- | --- | --- | --- | --- | --- | --- | --- | --- | --- | --- |
| CCCCCOc1ccc(-c2cc(-c3ccc(C(=O)N[C@H]4C[C@@H](O)[C@@H](O)NC(=O)[C@@H]5[C@@H](O)[C@@H](C)CN5C(=O)[C@H]([C@H](O)CC(N)=O)NC(=O)[C@H]([C@H](O)[C@@H](O)c5ccc(O)c(OS(=O)(=O)[O-])c5)NC(=O)[C@@H]5C[C@@H](O)CN5C(=O)C([C@@H](C)O)NC4=O)cc3)on2)cc1.[Na+] (stereo partly drawn) (X5-[Orn(4R-OH,5R-OH)][ξThr(3R)][Hyp][hTyr(3S-OH,4S-OH,3'-OSO3H)][Gln(3R-OH)][Pro(3S-OH,4S-Me)]; lactam 1-C) | 38 | 0.001 | 0.05 | 0.78 | 1.56 |  |  |  |  |  |
| CCCCCOc1ccc(-c2cc(-c3ccc(C(=O)N[C@H]4C[C@@H](O)[C@@H](O)NC(=O)[C@@H]5[C@@H](O)[C@@H](C)CN5C(=O)[C@H]([C@H](O)CC(N)=O)NC(=O)[C@H]([C@H](O)[C@@H](O)c5ccc(O)c(OS(=O)(=O)O)c5)NC(=O)[C@@H]5C[C@@H](O)CN5C(=O)[C@H]([C@@H](C)O)NC4=O)cc3)no2)cc1 (X2-[Orn(4R-OH,5R-OH)]T[Hyp][hTyr(3S-OH,4S-OH,3'-OSO3H)][Gln(3R-OH)][Pro(3S-OH,4S-Me)]; lactam 1-C) | < 20 |  |  |  |  |  |  |  |  |  |
| CCCCCCOc1ccc(N2CCN(c3ccc(C(=O)N[C@H]4C[C@@H](O)[C@@H](O)NC(=O)[C@@H]5[C@@H](O)[C@@H](C)CN5C(=O)[C@H]([C@H](O)CC(N)=O)NC(=O)[C@H]([C@H](O)[C@@H](O)c5ccc(O)c(OS(=O)(=O)[O-])c5)NC(=O)[C@@H]5C[C@@H](O)CN5C(=O)C([C@@H](C)O)NC4=O)cc3)CC2)cc1.[Na+] (stereo partly drawn) (X1-[Orn(4R-OH,5R-OH)][ξThr(3R)][Hyp][hTyr(3S-OH,4S-OH,3'-OSO3H)][Gln(3R-OH)][Pro(3S-OH,4S-Me)]; lactam 1-C) | < 20 | 0.002 | 0.1 | 1.56 | 3.13 | 0.395 | 0.531 | 18800 | 3.5 | 105 |
| CCCCCOc1ccc(-c2nc(-c3ccc(C(=O)N[C@H]4C[C@@H](O)[C@@H](O)NC(=O)[C@@H]5[C@@H](O)[C@@H](C)CN5C(=O)[C@H]([C@H](O)CC(N)=O)NC(=O)[C@H]([C@H](O)[C@@H](O)c5ccc(O)c(OS(=O)(=O)[O-])c5)NC(=O)[C@@H]5C[C@@H](O)CN5C(=O)C([C@@H](C)O)NC4=O)cc3)cs2)cc1.[Na+] (stereo partly drawn) (X8-[Orn(4R-OH,5R-OH)][ξThr(3R)][Hyp][hTyr(3S-OH,4S-OH,3'-OSO3H)][Gln(3R-OH)][Pro(3S-OH,4S-Me)]; lactam 1-C) | < 20 |  | 0.1 | 3.13 | 6.25 |  |  |  |  |  |
| CCCCCCCOc1ccc(N2CCN(c3ccc(C(=O)N[C@H]4C[C@@H](O)[C@@H](O)NC(=O)[C@@H]5[C@@H](O)[C@@H](C)CN5C(=O)[C@H]([C@H](O)CC(N)=O)NC(=O)[C@H]([C@H](O)[C@@H](O)c5ccc(O)c(OS(=O)(=O)[O-])c5)NC(=O)[C@@H]5C[C@@H](O)CN5C(=O)C([C@@H](C)O)NC4=O)cn3)CC2)cc1.[Na+] (stereo partly drawn) (X6-[Orn(4R-OH,5R-OH)][ξThr(3R)][Hyp][hTyr(3S-OH,4S-OH,3'-OSO3H)][Gln(3R-OH)][Pro(3S-OH,4S-Me)]; lactam 1-C) | < 20 | 0.005 | 0.2 | 6.25 | 3.13 |  |  |  |  |  |
| CCCCOc1ccc(-c2ccc(-c3ccc(C(=O)N[C@H]4C[C@@H](O)[C@@H](O)NC(=O)[C@@H]5[C@@H](O)[C@@H](C)CN5C(=O)[C@H]([C@H](O)CC(N)=O)NC(=O)[C@H]([C@H](O)[C@@H](O)c5ccc(O)c(OS(=O)(=O)[O-])c5)NC(=O)[C@@H]5C[C@@H](O)CN5C(=O)[C@H]([C@@H](C)O)NC4=O)cc3)cc2)cc1.[Na+] (X3-[Orn(4R-OH,5R-OH)]T[Hyp][hTyr(3S-OH,4S-OH,3'-OSO3H)][Gln(3R-OH)][Pro(3S-OH,4S-Me)]; lactam 1-C) | 79 | 0.002 | 0.025 | 1.56 | 1.56 | 0.447 |  |  |  |  |
| CCCCCCOc1ccc(C2CCN(c3ccc(C(=O)N[C@H]4C[C@@H](O)[C@@H](O)NC(=O)[C@@H]5[C@@H](O)[C@@H](C)CN5C(=O)[C@H]([C@H](O)CC(N)=O)NC(=O)[C@H]([C@H](O)[C@@H](O)c5ccc(O)c(OS(=O)(=O)[O-])c5)NC(=O)[C@@H]5C[C@@H](O)CN5C(=O)C([C@@H](C)O)NC4=O)cc3)CC2)cc1.[Na+] (stereo partly drawn) (X7-[Orn(4R-OH,5R-OH)][ξThr(3R)][Hyp][hTyr(3S-OH,4S-OH,3'-OSO3H)][Gln(3R-OH)][Pro(3S-OH,4S-Me)]; lactam 1-C) | 33 | 0.003 | 0.05 | 1.56 | 1.56 |  |  |  |  |  |
| CCCCCCCCOc1ccc(C(=O)N[C@H]2C[C@@H](O)[C@H](O)NC(=O)[C@@H]3[C@@H](O)[C@@H](C)CN3C(=O)[C@H]([C@H](O)CC(N)=O)NC(=O)[C@H]([C@H](O)[C@@H](O)c3ccc(O)c(OS(=O)(=O)[O-])c3)NC(=O)[C@@H]3C[C@@H](O)CN3C(=O)[C@H]([C@@H](C)O)NC2=O)cc1.[Na+] [FR-131535] ({Benzoyl(4-octyloxy)}-[Orn(4R-OH,5S-OH)]T[Hyp][hTyr(3S-OH,4S-OH,3'-OSO3H)][Gln(3R-OH)][Pro(3S-OH,4S-Me)]; lactam 1-C) |  |  |  | 12.5 | 25 |  |  | 30300 | 2 | 109 |
| CCCCCCOc1ccc(-c2nnc(-c3ccc(C(=O)N[C@H]4C[C@@H](O)[C@@H](O)NC(=O)[C@@H]5[C@@H](O)[C@@H](C)CN5C(=O)[C@H]([C@H](O)CC(N)=O)NC(=O)[C@H]([C@H](O)[C@@H](O)c5ccc(O)c(OS(=O)(=O)[O-])c5)NC(=O)[C@@H]5C[C@@H](O)CN5C(=O)C([C@@H](C)O)NC4=O)cc3)s2)cc1.[Na+] (stereo partly drawn) (X4-[Orn(4R-OH,5R-OH)][ξThr(3R)][Hyp][hTyr(3S-OH,4S-OH,3'-OSO3H)][Gln(3R-OH)][Pro(3S-OH,4S-Me)]; lactam 1-C) | 42 | 0.002 | 0.05 | 0.78 | 0.78 |  |  |  |  |  |
| CCCCCOc1ccc(-c2cc(-c3ccc(C(=O)N[C@H]4C[C@@H](O)[C@@H](O)NC(=O)[C@@H]5[C@@H](O)[C@@H](C)CN5C(=O)[C@H]([C@H](O)CC(N)=O)NC(=O)[C@H]([C@H](O)[C@@H](O)c5ccc(O)c(OS(=O)(=O)[O-])c5)NC(=O)[C@@H]5C[C@@H](O)CN5C(=O)C([C@@H](C)O)NC4=O)cc3)no2)cc1.[Na+] (stereo partly drawn) (X2-[Orn(4R-OH,5R-OH)][ξThr(3R)][Hyp][hTyr(3S-OH,4S-OH,3'-OSO3H)][Gln(3R-OH)][Pro(3S-OH,4S-Me)]; lactam 1-C) |  | 0.002 | 0.05 | 1.56 | 1.56 | 0.325 | 0.228 | 10100 | 5.1 | 78 |
